The source of these data is patent publication US10947213B1 (Merck Patent GmbH, priority 2015, dated 2021).

This assay has as its target T1, TLR7/NFKb HEK cells (Homo sapiens, UniProt Q9NYK1).
T1 construct: expressed in transfected cells; host or cells: HEK cells (TLR7/NFKb reporter line)
T1 sequence (Q9NYK1 27-1049): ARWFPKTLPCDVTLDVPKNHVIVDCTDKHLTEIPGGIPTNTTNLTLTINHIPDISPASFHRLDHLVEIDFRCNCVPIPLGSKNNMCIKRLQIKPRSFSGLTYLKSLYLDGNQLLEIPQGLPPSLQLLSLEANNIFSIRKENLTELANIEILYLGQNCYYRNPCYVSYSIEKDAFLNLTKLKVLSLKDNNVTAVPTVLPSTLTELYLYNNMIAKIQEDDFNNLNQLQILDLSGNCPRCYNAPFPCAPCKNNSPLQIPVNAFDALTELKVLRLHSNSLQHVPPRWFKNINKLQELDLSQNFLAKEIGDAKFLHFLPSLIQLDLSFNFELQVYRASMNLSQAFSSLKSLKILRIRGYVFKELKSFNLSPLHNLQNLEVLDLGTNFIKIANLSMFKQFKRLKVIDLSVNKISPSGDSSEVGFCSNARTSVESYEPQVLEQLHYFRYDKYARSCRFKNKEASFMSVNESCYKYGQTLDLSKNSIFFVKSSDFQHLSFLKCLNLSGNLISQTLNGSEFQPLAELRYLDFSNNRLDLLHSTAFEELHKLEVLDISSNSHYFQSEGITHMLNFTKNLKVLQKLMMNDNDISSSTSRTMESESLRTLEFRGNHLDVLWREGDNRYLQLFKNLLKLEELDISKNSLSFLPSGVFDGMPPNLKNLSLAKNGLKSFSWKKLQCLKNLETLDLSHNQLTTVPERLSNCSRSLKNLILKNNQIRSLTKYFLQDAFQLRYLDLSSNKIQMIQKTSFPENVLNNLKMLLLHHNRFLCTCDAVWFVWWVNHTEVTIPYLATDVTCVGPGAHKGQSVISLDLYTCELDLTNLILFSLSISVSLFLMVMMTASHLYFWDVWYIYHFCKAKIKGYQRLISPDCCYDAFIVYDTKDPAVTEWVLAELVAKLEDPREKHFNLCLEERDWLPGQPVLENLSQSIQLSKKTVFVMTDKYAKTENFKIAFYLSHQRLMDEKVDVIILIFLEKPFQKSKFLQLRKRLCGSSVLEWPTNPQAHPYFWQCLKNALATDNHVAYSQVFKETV
Nature of the assay: HEK Cell Assay (TLR7/NFKb reporter, Steady-Glo luciferase readout). The assay is classed as cell-based. The note with it: 30 min compound preincubation, then R*48 agonist for 5 hours, read-out: Potency. Put shortly: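 Steady-Glo luminescence after 5 h stimulation with R*48 agonist, following 30 min compound preincubation. Assay run in HEK cells carrying a TLR7/NFKb luciferase reporter, plated at 5000 cells/well and grown 24 h at 37° C (10% CO2) before treatment.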

With `C[C@H]1C[C@@H](NC(=O)CN2CC(O)C2)CN(c2ccc(C(F)(F)F)c3ncccc23)C1` [Compound 284], the IC50 is less than 1000 nM. On to `C[C@H]1C[C@@H](NC(=O)C(C)(C)N2CCCCC2)CN(c2ccc(C(F)(F)F)c3ncccc23)C1` [Compound 572], for which the IC50 is less than 1000 nM. `Cc1ncc(N2C[C@@H](C)C[C@@H](NC(=O)CCC(=O)O)C2)c2cccnc12` [Compound 567, N-[(3R,5S)-5-Methyl-1-(8-methyl-[1,7]naphthyridin-5-yl)-piperidin-3-yl]-succinamic acid]: the IC50 was greater than 10000 nM. With `N#Cc1ccc(N2CCC(C(=O)NCCN3CCOCC3)CC2)c2cccnc12` [Compound 419, 1-(8-Cyano-quinolin-5-yl)-piperidine-4-carboxylic Acid (2-morpholin-4-yl-ethyl)-amide] the figure was 1000 to 10000 nM; with `COC(C)C(=O)N[C@@H]1C[C@H](C)CN(c2ccnc3nccnc23)C1` (single isomer, unassigned) [Compound 160], greater than 10000 nM; with `C[C@H]1C[C@@H](NC(=O)C(O)C2CC2)CN(c2ccc(C(F)(F)F)c3ncccc23)C1` (stereo partly drawn) [Compound 515, 2-Cyclopropyl-2-hydroxy-N-[(3R,5S)-5-methyl-1-(8-trifluoromethyl-quinolin-5-yl)-piperidin-3-yl]-acetamide], less than 1000 nM. With `c1ccc2c(N3CCC(CNCCN4CCOCC4)CC3)ccnc2c1` [Compound 7, 2-morpholino-N-((1-(quinolin-4-yl)piperidin-4-yl)methyl)ethanamine] the figure was greater than 10000 nM; with `C[C@H]1C[C@@H](NC(=O)NC2CC2)CN(c2ccc(C(F)(F)F)c3ncccc23)C1` [Compound 518, 1-Cyclopropyl-3-[(3R,5S)-5-methyl-1-(8-trifluoromethyl-quinolin-5-yl)-piperidin-3-yl]-urea], less than 1000 nM. For the compound `COCCN[C@@H]1C[C@H](C)CN(c2ccc(OC)c3ncccc23)C1` [Compound 190, (3R,5S)—N-(2-methoxyethyl)-1-(8-methoxyquinolin-5-yl)-5-methylpiperidin-3-amine], the IC50 is less than 1000 nM. For `C[C@H]1C[C@@H](NC(=O)CC2CNC2)CN(c2ccc(C(F)(F)F)c3ncccc23)C1` [Compound 288, 2-(azetidin-3-yl)-N-[(3R,5S)-5-methyl-1-[8-(trifluoromethyl)quinolin-5-yl]piperidin-3-yl]acetamide] the value was less than 1000 nM; for `C[C@@H]1CN(c2ncc(F)c3nccnc23)C[C@H](C)O1` [Compound 455, cis-5-(2,6-Dimethyl-morpholin-4-yl)-8-fluoro-pyrido[3,4-b]pyrazine], greater than 10000 nM. With `N#Cc1ccc(N2CC(N)CC(C3CC3)C2)c2nccnc12` (single isomer, unassigned) [Compound 70, 8-(3-amino-5-cyclopropylpiperidin-1-yl)quinoxaline-5-carbonitrile] the figure was less than 1000 nM; with `C[C@H]1C[C@@H](NC(=O)C2CCN(C3CC3)CC2)CN(c2ccc(C(F)(F)F)c3ncccc23)C1` [Compound 574, 1-Cyclopropyl-piperidine-4-carboxylic acid [(3R,5S)-5-methyl-1-(8-trifluoromethyl-quinolin-5-yl)-piperidin-3-yl]-amide], less than 1000 nM. For `C[C@H]1C[C@@H](NC(=O)CC2CCN(C)C2)CN(c2ccc(C(F)F)c3nccnc23)C1` (stereo partly drawn) [Compound 319, N-[(3R,5S)-1-[8-(difluoromethyl)quinoxalin-5-yl]-5-methylpiperidin-3-yl]-2-(1-methylpyrrolidin-3-yl)acetamide] the value was less than 1000 nM; for `C[C@H]1C[C@@H](NC(=O)CC(C)(C)C)CN(c2ccc(C(N)=O)c3ncccc23)C1` [Compound 182, 5-[(3R,5S)-3-(3,3-dimethylbutanamido)-5-methylpiperidin-1-yl]quinoline-8-carboxamide], 1000 to 10000 nM; for `CCN(CC)CC(=O)N(C)CC1CCN(c2ccnc3nccnc23)CC1` [Compound 405, 2-Diethylamino-N-methyl-N-(1-pyrido[2,3-b]pyrazin-8-yl-piperidin-4-ylmethyl)-acetamide], 1000 to 10000 nM. For the compound `C[C@H]1C[C@@H](NC(=O)CC(F)(F)F)CN(c2ccnc3nccnc23)C1` [Compound 120, 3,3,3-trifluoro-N-[(3R,5S)-5-methyl-1-[pyrido[2,3-b]pyrazin-8-yl]piperidin-3-yl]propanamide], the IC50 was greater than 10000 nM. For `Cn1ncc2c(N3CCC(C(=O)NCCN4CCCCC4)CC3)ncnc21` [Compound 3, 1-(1-methyl-1H-pyrazolo[3,4-d]pyrimidin-4-yl)-N-(2-(piperidin-1-yl)ethyl)piperidine-4-carboxamide] the value was 1000 to 10000 nM. For `COCC(=O)N[C@@H]1C[C@H](C)CN(c2ccc(C#N)c3nccnc23)C1` [Compound 134, N-[(3R,5S)-1-(8-cyanoquinoxalin-5-yl)-5-methylpiperidin-3-yl]-2-methoxyacetamide] the value was 1000 to 10000 nM; for `C[C@H]1C[C@@H](NC2CCNC2=O)CN(c2ccc(C#N)c3nccnc23)C1` (stereo partly drawn) [Compound 123, 8-[(3S,5R)-3-methyl-5-[(2-oxopyrrolidin-3-yl)amino]piperidin-1-yl]quinoxaline-5-carbonitrile], less than 1000 nM. With `CC(C(=O)N[C@@H]1C[C@H](C)CN(c2ccc(C(F)(F)F)c3nccnc23)C1)N1CC(O)C1` (some centres unmarked) [Compound 297] the figure was less than 1000 nM. Take `CN(C)CC(=O)N[C@H]1C[C@@H](C(F)(F)F)CN(c2ccc(C#N)c3nccnc23)C1` (relative stereo) [Compound 222, cis-N-[1-(8-cyanoquinoxalin-5-yl)-5-(trifluoromethyl)piperidin-3-yl]-2-(dimethylamino)acetamide]: the IC50 is less than 1000 nM.

For `COc1ccc(N2C[C@@H](N)C[C@@H](C3CC3)C2)c2cccnc12` (relative stereo) [Compound 334, cis-5-cyclopropyl-1-(8-methoxyquinolin-5-yl)piperidin-3-amine], the IC50 was less than 1000 nM. With `O=C(CN1CCOCC1)N[C@H]1C[C@@H](C2CC2)CN(c2ccc(C(F)(F)F)c3ncccc23)C1` (relative stereo) [Compound 336, cis-N-[5-cyclopropyl-1-[8-(trifluoromethyl)quinolin-5-yl]piperidin-3-yl]-2-(morpholin-4-yl)acetamide] the figure was greater than 10000 nM; with `CCN(CC)CCNC(=O)C1CCN(c2ccc(C#N)c3nccnc23)CC1` [Compound 432, 1-(8-Cyano-quinoxalin-5-yl)-piperidine-4-carboxylic acid (2-diethylamino-ethyl)-amide], less than 1000 nM.

Regarding `CN1CCC(NC(=O)C2CN(c3ccc(C#N)c4nccnc34)CC(F)(F)C2)CC1` (centres unmarked) [Compound 529, 1-(8-Cyano-quinoxalin-5-yl)-5,5-difluoro-piperidine-3-carboxylic acid (1-methyl-piperidin-4-yl)-amide], the IC50 is less than 1000 nM. For `C[C@@H]1C[C@@H](CN2CCC(N3CCOCC3)CC2)CN(c2ccc(C(F)(F)F)c3ncccc23)C1` (relative stereo) [Compound 536, trans-5-[3-Methyl-5-(4-morpholin-4-yl-piperidin-1-ylmethyl)-piperidin-1-yl]-8-trifluoromethyl-quinoline] the value was 1000 to 10000 nM; for `C[C@H]1C[C@@H](NC(=O)Cc2cn(C)cn2)CN(c2ccc(C#N)c3nccnc23)C1` [Compound 132, N-[(3R,5S)-1-(8-cyanoquinoxalin-5-yl)-5-methylpiperidin-3-yl]-2-(1-methyl-1H-imidazol-4-yl)acetamide], less than 1000 nM.

On to `NC1CN(c2ccc(C(F)(F)F)c3ncccc23)CC(F)(F)C1` (single isomer, unassigned) [Compound 527], for which the IC50 is less than 1000 nM.

Turning to `CCN(C)[C@H](C)C(=O)N[C@@H]1C[C@H](C)CN(c2ccc(C#N)c3nccnc23)C1` [Compound 98, (2R)—N-[(3R,5S)-1-(8-cyanoquinoxalin-5-yl)-5-methylpiperidin-3-yl]-2-[ethyl(methyl)amino]propanamide], the IC50 is less than 1000 nM. In the case of `C[C@@H]1CN(c2ccnc3nccnc23)C[C@H](CN2CCC(N3CCCCC3)CC2)O1` [Compound 58, (2S,6R)-2-(1,4′-bipiperidin-1′-ylmethyl)-6-methyl-4-(pyrido[2,3-b]pyrazin-8-yl)morpholine], the IC50 was less than 1000 nM. For `C[C@H]1C[C@@H](NC2CCC(O)CC2)CN(c2ccc(C#N)c3nccnc23)C1` (single isomer, unassigned) [Compound 136] the value was less than 1000 nM.
